Source: patent publication US20050272817A1, “Dermatological use and a dermatological preparation” (priority 2000, published 2005)

What was measured:
[1] = system: psoriatic plaques; test: Topical treatment of psoriatic plaques in a psoriatic patient, 35 days; type: in vivo, human; conditions: for change (reduction) in plaque area: ointment 50 mg/cm^2 twice in 24 hours
Source text: Simultaneous topical treatment of four untreated, typically scaling and sharply demarcated dermatitic plaques ([…]) in a psoriatic patient was undertaken. Plaque 5 was left untreated for comparison.
The areas of the plaques at initiation of the treatment were as follows: plaque 1: 8.7 cm^2; plaque 2: 8.1 cm^2; plaque 3: 6.8 cm^2; plaque 4: 6.1 cm^2; plaque 5: 6.4 cm^2.
The following ointments were applied to plaques 1-4:
Locobase.RTM. unctuous cream (Yamanouchi Europe B. V., Leiderup, Holland).
Daivonex.RTM. calcipotriol ointment containing 50µg calcipotriol per gram (L.o slashed.vens Kemiske Fabrik, Ballerup, Denmark).
Locobase.RTM.D unctuous cream containing 500µg 3,3′,5,5′-tetraiodothyroacetic acid, T4A, per gram (University Pharmacy, Helsinki, Finland).
Locobase.RTM. unctuous cream containing 500 μg T4A per gram and […], T4, per gram (University Pharmacy, Helsinki, Finland).
Each ointment was applied to the plaques at 50 mg/cm^2 twice in 24 hours, corresponding to 5µg calcipotriol per cm^2 per 24 hours for plaque 2, 50 μg T4A per cm^2 per 24 hours for plaques 3 and 4, and 5 μg T4 per cm^2 per 24 hours for plaque 4. Treatment was continued in this manner for 35 days.
The results are presented in Table 1 below, showing the change (reduction) in plaque area with time (days).

[2] = system: psoriatic plaques; test: Continuation of the therapeutic trial from 35 days onward (to 70 days); type: in vivo, human; conditions: for change (reduction) in plaque area: from day 35: plaque 2 (earlier Daivonex) no treatment, plaque 3 (earlier T4A) Locobase, plaque 4 (earlier T4A+T4) T4 ointment 5 μg/cm^2/24 h; for effect on psoriatic rash (in words): topically applied
Procedure: The therapeutic trial was continued from 35 days onward as follows:
Locobase® ointment containing […], T4, per gram (University Pharmacy, Helsinki, Finland).
As previously, the ointments were applied to the target plaques at 50 mg/cm^2 twice in 24 hours. Thus, the dose of T4 to plaque 4 was 5 μg T4 per cm^2 per 24 hours.

[3] = system: psoriatic plaques; test: Additional embodiment: topical T3A or D-T4 with or without T4A on psoriatic plaques, 35 days; type: in vivo, human; conditions: for effect on psoriatic rash (conclusions, in words): topically administered
Procedure: Simultaneous topical treatment of four untreated, typically scaling and demarcated dermatitic plaques (plaques 1-4) in a psoriatic patient was undertaken. Plaque 5 was left untreated for comparison.
The areas of the plaques at initiation of the treatment were as follows: plaque 1: 5.3 cm^2, plaque 2: 4.9 cm^2, plaque 3: 6.4 cm^2, plaque 4: 5.3 cm^2; plaque 5: 5.6 cm^2.
Triacana® cream containing 200 μg 3,5,3′-triiodothyroacetic acid, T3A, (triac, tiratricol) per gram.
Triacana® cream plus Locobase® unctuous cream containing 500 μg 3,3′,5,5′-tetraiodothyroacetic acid, T4A, per gram (University Pharmacy, Helsinki, Finland. Ex tempore-preparation).
Locobase® unctuous cream containing 2500 μg D-thyroxine, D-T4, per gram (University Pharmacy, Helsinki, Finland. Ex tempore-preparation).
Locobase® unctuous cream containing 2500 μg D-thyroxine, D-T4, per gram (University Pharmacy, Helsinki, Finland. Ex tempore-preparation) plus Locobase® unctuous cream containing 500 μg 3,3′,5,5′-tetraiodothyroacetic acid, T4A, per gram (University Pharmacy, Helsinki, Finland. Ex tempore-preparation).
Triacana® cream was applied to plaques 1 and 2 at 125 mg/cm^2 twice in 24 hours, corresponding to 50 μg 3,5,3′-triiodothyroacetic acid per cm^2 per 24 hours.
T4A-ointment was applied to plaque 2 concurrently with Triacana® cream at 50 mg/cm^2 twice in 24 hours, corresponding to 50 μg 3,3′,5,5′-tetraiodothyroacetic acid per cm^2 per 24 hours.
D-T4-ointment was applied to plaques 3 and 4 at 50 mg/cm^2 twice in 24 hours, corresponding to 250 μg D-T4, per cm^2 per 24 hours.
T4A-ointment was applied to plaque 4 concurrently with the D-T4-ointment at 50 mg/cm^2 twice in 24 hours corresponding to 50 μg/cm^2 3,3′,5,5′-tetraiodothyroacetic acid per cm^2 per 24 hours.
Treatment was continued in this manner for 35 days.

[4] = system: thyroid hormone activity; conditions: background statement; cited from earlier work
[5] = system: psoriasis; conditions: topical calcipotriol therapy; cited from earlier work
[6] = system: psoriatic plaque; test: Topical T4P ointment on a previously untreated psoriatic plaque; type: in vivo, human; conditions: T4P 25 μg/cm^2 twice per 24 hours for 35 days; follow-up 42 days
Procedure: The topical effect of T4P, 3,3′,5,5′-tetraiodothyropropionic acid ointment on a previously untreated psoriatic plaque, on psoriasis was studied in a therapeutic design identical with the above. The dosage of T4P was 25 μg/cm^2 twice per 24 hours for 35 days. The follow-up period was 42 days. […] Effect of 3,3′,5,5′-tetraiodothyropropionic acid (T4P) ointment on a previously untreated psoriatic plaque. The dosage of T4P was 25 μg/cm^2 twice per 24 hours for 35 days. The follow-up period was 42 days.

O=C(O)Cc1cc(I)c(Oc2cc(I)c(O)c(I)c2)c(I)c1 [T4A, 3,3′,5,5′-tetraiodothyroacetic acid]
change (reduction) in plaque area ([1]; 14 days): 45% | change (reduction) in plaque area ([1]; 21 days): 65% | change (reduction) in plaque area ([1]; 28 days): 85% | effect on psoriatic plaques (in words) ([1]; 35 days topical treatment): clear effect | therapeutic efficacy in terms of reduction in plaque area, compared with calcipotriol ointment ([1]; 35 days topical treatment): better than that of the calcipotriol ointment | change (reduction) in plaque area ([1]; 35 days): 90% | change (reduction) in plaque area ([2]; 42 days): 95% | change (reduction) in plaque area ([2]; 50 days): 95% | change (reduction) in plaque area ([2]; 62 days): 90% | change (reduction) in plaque area ([2]; 70 days): 80% | inhibition of the rash-worsening effect of T4 ([2]; topical T4A 50 μg/cm^2/24 h with T4 5 μg/cm^2/24 h): completely inhibits this effect | effect on psoriatic rash (in words) [2]: therapeutically efficacious | effect on psoriatic rash (conclusions, in words) [3]: separate and prominent antipsoriatic effect | thyroid hormone activity relative to T4 [4]: about one-fourth

N[C@H](Cc1cc(I)c(Oc2cc(I)c(O)c(I)c2)c(I)c1)C(=O)O [D-T4, D-thyroxine]
changes in the area or appearance of the plaque during the whole treatment period ([3]; 35 days, T3A 50 μg/cm^2/24 h or D-T4 250 μg/cm^2/24 h alone): no visible changes | effect on psoriatic rash (conclusions, in words) [3]: did not have any visible effect | thyroid hormone activity relative to T4 [4]: substantially less thyroid hormone activity than T4

C=C1/C(=C\C=C2/CCC[C@]3(C)[C@@H]([C@H](C)/C=C/[C@@H](O)C4CC4)CC[C@@H]23)C[C@@H](O)C[C@@H]1O [calcipotriol]
complete removal of dermatitic plaques, share of cases [5]: about 15%

O=C(O)CCc1cc(I)c(Oc2cc(I)c(O)c(I)c2)c(I)c1 [T4P, 3,3′,5,5′-tetraiodothyropropionic acid]
inhibition of the effects of T4 [6]: completely inhibit the effects of T4 | therapeutic efficacy compared with T4A [6]: equal to T4A in therapeutic efficacy | thyroid hormone activity relative to T4 [4]: about one-fourth

N[C@@H](Cc1cc(I)c(Oc2cc(I)c(O)c(I)c2)c(I)c1)C(=O)O [T4, 3,3′,5,5′-tetraiodo-L-thyronine, reference compound]
change (reduction) in plaque area ([2]; 42 days): 70% | change (reduction) in plaque area ([2]; 50 days): 25% | change (reduction) in plaque area ([2]; 62 days): -10% | change (reduction) in plaque area ([2]; 70 days): −50% ^ | increase of the area of plaque 4 compared with baseline ([2]; T4 ointment 5 μg/cm^2/24 h from day 35 to day 70, plaque previously treated with T4A+T4): 50% | effect on psoriatic rash (in words) [2]: worsened

N[C@@H](Cc1cc(I)c(Oc2ccc(O)c(I)c2)c(I)c1)C(=O)O [T3, 3,3′,5-triiodo-L-thyronine, reference compound]
thyroid hormone activity relative to T4 [4]: five times that of T4

O=C(O)Cc1cc(I)c(Oc2ccc(O)c(I)c2)c(I)c1 [T3A, 3,5,3′-triiodothyroacetic acid]
effect on psoriatic rash (conclusions, in words) [3]: did not have any visible effect
